The subject of data set [1] is PPARγ. The note with it: cited from earlier work; for AC50: PPARγ, NA = not active; for PPARγ agonists: EC10, ATG: AC10, ToxCast 2014 release; for EC50: gain AC50, ToxCast 2014 release, read-out: PPARγ agonists: EC50, ATG.
The next data set relates to 3T3-L1 preadipocytes. Description: 3T3-L1 adipogenesis assay (lipid accumulation, adipogenic gene expression). Type of data set: cell-based. The note with it: for Adipogenesis 3T3-L1 (result in words): 0.02-20 μM, 5 days after MDI induction; for Adipogenic gene expression (Fabp4, Fsp27, Lpl), QPCR: 3T3-L1, Figure 2A; for Induction of adipogenesis in 3T3-L1 preadipocytes, doses: lipid accumulation, Nile red/Hoechst, Figure 2A. In short, it runs like this:
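After 2-day MDI induction with biotin and pantothenate, 3T3-L1 cells were treated 5 days with chemicals at 0.02–20 μM (0.1% DMSO; 10 μM if toxic). Lipid read as Nile red/Hoechst fluorescence ratio; adipogenic genes by QPCR, 2^ΔΔCt versus 36b4, normalized to DMSO.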

For data set [2], the system named is PPARγ. On the set-up: method as in Filer et al. 2014. The note with it: ref Filer et al. 2014, cited from earlier work; for AC50: PPARγ, NA = not active, read-out: NCGC Antag. AC50, 2014 Release.
In a further data set the target is T1, GAL4-mPPARγ (Mus musculus, UniProt P37238).
T1 construct: expressed in transfected cells; host or cells: COS7
T1 sequence (P37238 with tags, fused parts or gaps limits assumed): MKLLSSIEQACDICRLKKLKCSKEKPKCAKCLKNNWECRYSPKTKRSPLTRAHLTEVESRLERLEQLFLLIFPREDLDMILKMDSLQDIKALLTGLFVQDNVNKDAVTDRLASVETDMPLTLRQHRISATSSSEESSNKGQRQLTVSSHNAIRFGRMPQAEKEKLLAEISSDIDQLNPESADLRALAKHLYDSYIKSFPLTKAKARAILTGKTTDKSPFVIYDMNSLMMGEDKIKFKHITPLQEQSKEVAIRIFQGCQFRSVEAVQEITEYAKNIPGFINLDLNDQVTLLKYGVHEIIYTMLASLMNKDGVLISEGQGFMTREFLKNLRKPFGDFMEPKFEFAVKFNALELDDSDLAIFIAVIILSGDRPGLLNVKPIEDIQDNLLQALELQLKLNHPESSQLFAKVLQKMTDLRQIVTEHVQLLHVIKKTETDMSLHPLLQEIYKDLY
Description: GAL4-mPPARγ antagonism in competition with 50 nM rosiglitazone, transiently transfected COS7 cells. Type of data set: cell-based. The protocol: pCMX-Gal4, pCMX-Gal4-mPPARγ, and pCMX-Gal4-hRXRα were previously described ([Grün et al. 2006]). Transient transfections were performed in COS7 cells as described ([Chamorro-García et al. 2012]). Briefly, COS7 cells were seeded at 15,000 cells per well in 96-well tissue culture plates in 10% calf bovine serum. The following day, cells were transfected in Opti-MEM at ~ 90% confluency. One microgram of CMX-GAL4 effector plasmid was co-transfected with 5 μg tk-(MH100)4-luciferase reporter and 5 μg of CMX-β-galactosidase transfection control plasmids in Opti-MEM® using Lipofectamine® 2000 reagent (Invitrogen™ Life Technologies, Carlsbad, CA, USA), following the manufacturer’s recommended protocol. All chemicals were solvated in dimethyl sulfoxide (DMSO). After overnight incubation, the medium was replaced with Dulbecco’s Modified Eagle Medium (DMEM; HyClone, Logan, UT, USA), 10% resin charcoal stripped fetal bovine serum (FBS) plus ligands at concentrations indicated in the figure legends for an additional 24 hr. DMSO concentration was maintained at 0.05% across all chemical treatments. Cells were lysed and assayed for luciferase and β-galactosidase activity as previously described ([Forman et al. 1995]). All transfections were performed in triplicate and reproduced in multiple experiments. Data are reported as fold induction or reduction over vehicle ([…]) controls ± SEM (standard error of the mean) using standard propagation of error ([Bevington and Robinson 2003]). […] The EC50, EC10, IC50, and IC10 values from NCGC and ToxCast™ are reported from gain AC50 and AC10 values in the ToxCast™ 2014 release ([Filer et al. 2014]).
Figure 1 ToxCast™ Chemical Activity on PPARγ. The ability of a graded dose series of ToxCast™ chemicals to (A) activate or (B) antagonize GAL4-mPPARγ was tested in transiently transfected COS7 cells. (A, B) Data points are averages of triplicate transfections (three biological replicates). […] Data are depicted as (A) fold induction or (B) reduction over vehicle (0.05% DMSO) controls ± SEM. (A) ToxCast™ chemicals were tested in 3-fold serial dilutions from 100 μM through 0.137 μM, with the final data point being 0.05% DMSO. Rosiglitazone serves as a positive control activator. (B) ToxCast™ chemicals were tested in 3-fold serial dilutions from 100 μM, in competition with 50 nM rosiglitazone (Rosi). […] (C) EC50, EC10, IC50, and IC10 values calculated from A and B are reported and compared to commercial assays (see Figure S1). Note: ATG, Attagene GAL-PPARγ activation assay; NCGC, GeneBLAzer® agonist (EC values) or antagonist (IC values) assays. Triphenyltin was previously published ([Kanayama et al. 2005]).

In the next data set the test system is Human PPARγ. The note with it: PPARγ direct binding, NA = not active, cited from earlier work.
The subject of the next data set is PPRE. The arrangement: method as in Knudsen et al. 2011. The note with it: ToxCast Phase I 2011 release; NA = not active; ref Knudsen et al. 2011; read-out: ATGC PPRE AC50; cited from earlier work.
The mark [3] stands for this setting: ref Filer et al. 2014, read-out: ATG Agonist AC50, 2014 Release.
The mark [4] stands for this setting: ref Knudsen et al. 2011, read-out: ATG Agonist AC50, 2011 Release.

Like-named read-outs stand apart in the source and are kept apart here.

What is called AC50 is the concentration giving half of the maximal activity seen. As a reminder, the IC50 is the concentration at which inhibition is half-maximal. With `O=[N+]([O-])c1cc(C(F)(F)F)c(Cl)c([N+](=O)[O-])c1Nc1ncc(C(F)(F)F)cc1Cl` [Fluazinam], the AC50 in the data set on PPARγ [1] (setting [3]) was 1.2 µM; in the data set on PPARγ [1] (setting [4]) it was 0.51 µM; in the data set with PPARγ [2] it was 1.3 µM; at GAL4-mPPARγ (Activation AC50 (PPARγ antagonists), Cos-7 transient transfection, competition with 50 nM rosiglitazone), 7.2 µM; with Human PPARγ (ref Filer et al. 2014, read-out: NVS Agonist AC50, 2014 Release) it was 0.26 µM; in the data set with Human PPARγ (ref Knudsen et al. 2011, read-out: NVS Agonist AC50, 2011 Release), 0.28 µM. Besides, the “Adipogenesis 3T3-L1 (result in words)” value in the data set with 3T3-L1 preadipocytes is “Negative”. Moreover, the “PPARγ antagonists: IC10, NCGC” value in the data set with PPARγ [2] (AC10, ToxCast 2014 release) is 0.20 µM. In addition, the IC50 in the data set with PPARγ [2] (read-out: PPARγ antagonists: IC50, NCGC, gain AC50, ToxCast 2014 release) is 1.27 µM; at GAL4-mPPARγ it was 7.2 µM. Moreover, the “Antagonism of PPARγ” value on GAL4-mPPARγ (COS7, competition against 50 nM rosiglitazone) is “weak antagonists”. In addition, the “PPARγ antagonists: IC10, Fig 1B” value at GAL4-mPPARγ (COS7, in competition with 50 nM rosiglitazone, computed from IC50) stood at 4.41 µM. Moreover, the “Activation COS7 (result in words): PPARγ antagonist” value at GAL4-mPPARγ (Cos-7 transient transfection, competition with 50 nM rosiglitazone) was “PPARγ antagonist”.

As a reminder, the EC50 is the concentration giving half of the maximal effect. As to `Fc1ccc(Oc2ccnc3cc(Cl)cc(Cl)c23)cc1` [Quinoxyfen], the “PPARγ agonists: EC10, ATG” value in the data set on PPARγ [1] (ref Filer et al. 2014) is 3.98 µM. The values for the AC50 in the data set with PPARγ [1] (setting [3]), in the data set with PPARγ [1] (setting [4]) and in the data set with PPRE were 5.1 µM, 6.6 µM and 2.8 µM, respectively. The EC50 in the data set on PPARγ [1] (ref Filer et al. 2014) was 5.12 µM. In addition, the “Adipogenesis 3T3-L1 (result in words)” value in the data set with 3T3-L1 preadipocytes was “Positive”.

Turning to `CCC(C)(C)C(=O)OC1=C(c2ccc(Cl)cc2Cl)C(=O)OC12CCCCC2` [Spirodiclofen], in the data set with PPARγ [1] (ref Filer et al. 2014), the “PPARγ agonists: EC10, ATG” value is 0.10 µM and the EC50 was 1.85 µM. Besides, in the data set on PPARγ [1] (setting [3]), the AC50 is 1.9 µM. In addition, the half-maximal activity concentration (AC50) in the data set on PPARγ [1] (setting [4]) was 3.6 µM. For the same compound, in the data set on 3T3-L1 preadipocytes, the “Adipogenesis 3T3-L1 (result in words)” value is on record as “Positive”; the “Adipogenic gene expression (Fabp4, Fsp27, Lpl), QPCR” value was “increases”; the “Induction of adipogenesis in 3T3-L1 preadipocytes, doses” value is given as “induced adipogenesis at all doses tested”.

In the case of `CCC(C)(NC(=O)c1cc(Cl)c(C)c(Cl)c1)C(=O)CCl` (stereo not drawn) [Zoxamide], in the data set with PPARγ [1] (ref Filer et al. 2014), the “PPARγ agonists: EC10, ATG” value is 0.18 µM and the EC50 is 1.27 µM. The concentration at half-maximal activity (AC50) in the data set on PPARγ [1] (setting [3]) is 1.3 µM. In addition, in the data set on PPARγ [1] (setting [4]), the AC50 is 1.5 µM. Moreover, in the data set with 3T3-L1 preadipocytes, the “Lipid accumulation: TOXIC mark in place of bar” value is recorded as “TOXIC”; the “Adipogenesis 3T3-L1 (result in words)” value is “Positive”; the “Adipogenic gene expression (Fabp4, Fsp27, Lpl), QPCR” value was “increases”; the “Induction of adipogenesis in 3T3-L1 preadipocytes, doses” value is given as “induced adipogenesis at the lowest dose”. In the data set on 3T3-L1 preadipocytes (mouse, 5 days), the “Concentration toxic to 3T3-L1 cells” value is ≥ 10 µM. Besides, the AC50 with PPARγ [2] is 0.4 µM.

The values are drawn from article PMC4977052, “On the Utility of ToxCast™ and ToxPi as Methods for Identifying New Obesogens” (Environmental Health Perspectives, 2016).
